Measurements reported in patent US6265445A, “Antiarrhythmic compounds” (priority 1997, dated 2001).
Where a name gives a salt, the structure may show the parent alone. Read-outs that look alike come from different tables or passages of the source.

How the values were obtained:
[1] = tested on: isolated right ventricular trabecule of dog heart; test: Extracellular electrophysiological measurements: impulse conduction time and effective refractory period; set-up: species or system mongrel dogs; details: for activation at 10 µM: Canis lupus familiaris; for effect on effective refractory period (in words) / effect on impulse conduction (in words): concentrations of Table 1
Protocol: Right ventricular trabecules were prepared from the heart of mongrel dogs (weighing 5 to 10 kg each). The surviving heart pieces were placed into an organ bath (37° C.) containing modified Tyrode's nutrient medium and excited by point stimulation with a basal frequency of 1 Hz. Extracellular bipolar platinum electrodes were placed on the surface of the preparations, by means of which the propagation of the superficial potentials were registered; thus, the determination of the time of impulse conduction or the rate of impulse conduction, respectively, and the effective refractory period (ERP) became possible. During our experiments,the frequency of stimulation was temporarily varied from 0.5 Hz up to 3 Hz. The tested compounds were directly added to the organ bath after dilution of the stock solution according to the desired final concentration.

[2] = tested on: right ventricular papillary muscle of dogs; test: Intracellular microelectrode technique: action potential parameters, ventricular papillary muscle; set-up: species or system mongrel dogs; details: for Trecovery (recovery time constant of Vmax): Gy: kinetics of rapid restoration; for effect on duration of the action potential (in words) / effect on Vmax (in words): concentrations of Table 2; for effect on Vmax (in words): rapid recovery kinetics
Protocol: The method used is essentially in agreement with the method of Papp et al. [J. Cardiovascular Pharmacol. Ther. 1, 287-296 (1996)].
Right ventricular papillary muscle and Purkinje's fibres were prepared from the hearts of mongrel dogs (weighing 5 to 10 kg each). The preparations were placed into an organ bath (37° C.) containing modified Tyrode's nutrient medium. The preparations were excited by a basal frequency of 1 Hz. During the experiments, the frequency of stimulation was varied under broad limits by a computer-guided stimulator. The intracellular action potentials were registered by using glass capillary microelectrodes filled with 3 N potassium chloride solution (standard intracellular microelectrode techniques). The resting potential (RP), the amplitude of the action potential (APA) as well as the duration of the action potential (APD) were measured by using an IBM 386 compatible computer by means of an own-developed software. The compounds under test were directly added into the organ bath after dilution of the stock solutions according to the final concentrations desired. The effects of the compounds were observed after an incubation time of 30 to 40 minutes.

[3] = 10 μM, 1 Hz, read-out: Prolongation (%) of ERP
[4] = 10 μM, 1 Hz, read-out: Prolongation (%) of impulse conduction time
[5] = 10 μM, 3 Hz, read-out: Prolongation (%) of ERP
[6] = 10 μM, 3 Hz, read-out: Prolongation (%) of impulse conduction time

Compound | activation at 10 µM [1, 3] | activation at 10 µM [1, 4] | activation at 10 µM [1, 5] | activation at 10 µM [1, 6] | APA (amplitude of the action potential) ([2]; 5 μM) | APD50 (time of 50% repolarization) ([2]; 5 μM) | APD90 (time of 90% repolarization) ([2]; 5 μM) | RP (resting potential) ([2]; 5 μM) | Recovery Ampl ([2]; 5 μM) | Recovery Ampl/Plateau ([2]; 5 μM) | Recovery Plateau ([2]; 5 μM) | Vmax (maximum rate of depolarization) ([2]; 5 μM) | Trecovery (recovery time constant of Vmax) ([2]; 5 μM) | effect on duration of the action potential (in words) [2] | effect on Vmax (in words) [2] | also measured
Cc1cccc(C)c1OCCCN(C)CCc1ccc(NS(C)(=O)=O)cc1 [Example 23, N-[4-[2-[N-Methyl-N-[3-(2,6-dimethylphenoxy)propyl]amino]-ethyl]phenyl]methanesulfonamide hydrochloride] | 10.8% | 25% | 14.9% | 25% |  |  |  |  |  |  |  |  |  |  |  | 
Cc1cccc(C)c1OC[C@@H](C)N(C)CCc1ccc(NS(C)(=O)=O)cc1.Cl [Example 17, (R)-N-[4-[2-[N-Methyl-N-[2-(2,6-dimethylphenoxy)-1-methylethyl]amino]ethyl]phenyl]methanesulfonamide hydrochloride] | 12.1% | 32.5% | 17.1% | 35.1% | 106 mV | 203 ms | 249 ms | -87 mV | 85.2 V/s | 0.52 | 173.7 V/s | 169 V/s | 390.4 ms | simultaneous prolongation of duration of the action potential (APD) | mexiletine-like inhibition of Vmax | effect on effective refractory period (in words) [1]: simultaneous prolongation of the effective refractory period (ERP); effect on impulse conduction (in words) [1]: significantly prolonged the time of impulse conduction in a frequency-dependent manner; difference between the effects of Example 15 and its enantiomers (in words) ([2]; 5 μM): No essential difference could be observed
Cc1cccc(C)c1OCC(C)N.Cl (centres unmarked) [Mexiletine, 2-(2,6-dimethylphenoxy)-1-methylethylamine hydrochloride, reference compound] |  |  |  |  |  |  |  |  |  |  |  |  |  |  |  | activation at 10 µM ([1]; read-out: Prolongation (%) of ERP, 10 μM, 1 Hz): -1.9 ± 1.7%; activation at 10 µM ([1]; read-out: Prolongation (%) of ERP, 10 μM, 3 Hz): 8.9%; activation at 10 µM ([1]; read-out: Prolongation (%) of impulse conduction time, 10 μM, 1 Hz): 3.9%; activation at 10 µM ([1]; read-out: Prolongation (%) of impulse conduction time, 10 μM, 3 Hz): 18.8%; effect on impulse conduction (in words) [1]: exerted an effect mainly on impulse conduction; APA (amplitude of the action potential) ([2]; 10 μM): 115 mV; APD50 (time of 50% repolarization) ([2]; 10 μM): 244 ms; APD90 (time of 90% repolarization) ([2]; 10 μM): 270 ms; RP (resting potential) ([2]; 10 μM): -92 mV; Recovery Ampl ([2]; 10 μM): 84.0 V/s; Recovery Ampl/Plateau ([2]; 10 μM): 0.45; Recovery Plateau ([2]; 10 μM): 186.5 V/s; Vmax (maximum rate of depolarization) ([2]; 10 μM): 193 V/s; Trecovery (recovery time constant of Vmax) ([2]; 10 μM): 214.1 ms
Cc1ccccc1OCCN(C)CCc1ccc(NS(C)(=O)=O)cc1.Cl [Example 14, N-[4-[2-[N-Methyl-N-[2-(2-methylphenoxy)ethyl]amino]ethyl]-phenyl]methanesulfonamide hydrochloride] |  |  |  |  | 114 mV | 214 ms | 257 ms | -90 mV | 58.7 V/s | 0.25 | 231.8 V/s | 232 V/s | 111.4 ms | simultaneous prolongation of duration of the action potential (APD) | mexiletine-like inhibition of Vmax | 
CC(=O)Nc1ccc(CCN(C)C(C)COc2c(C)cccc2C)cc1 (centres unmarked) [Example 26, N-[4-[2-[N-Methyl-N-[2-(2,6-dimethylphenoxy)-1-methylethyl]amino]ethyl]phenyl]acetamide sesquihydrochloride monohydrate] |  |  |  |  | 105 mV | 200 ms | 250 ms | -80 mV | 120.9 V/s | 0.62 | 195.9 V/s | 195 V/s | 199 ms | simultaneous prolongation of duration of the action potential (APD) | mexiletine-like inhibition of Vmax | 
Cc1cccc(C)c1OCCCCN(C)CCc1ccc(NS(C)(=O)=O)cc1.Cl [Example 24, N-[4-[2-[N-Methyl-N-[4-(2,6-dimethylphenoxy)butyl]amino]ethyl]phenyl]methanesulfonamide hydrochloride] | 13.8% | 69% | 18.4% | 82.9% |  |  |  |  |  |  |  |  |  |  |  | effect on effective refractory period (in words) [1]: simultaneous prolongation of the effective refractory period (ERP); effect on impulse conduction (in words) [1]: significantly prolonged the time of impulse conduction in a frequency-dependent manner
Cc1cccc(C)c1OCC(C)N(C)CCc1ccc(NC(=O)c2ccccc2)cc1 (centres unmarked) [Example 25, N-[4-[2-[N-Methyl-N-[2-(2,6-dimethylphenoxy)-1-methylethyl]amino]ethyl]phenyl]benzamide hydrochloride] | 11.7% | 18.8% | 17% | 18.8% |  |  |  |  |  |  |  |  |  |  |  | 
CNC(=S)Nc1ccc(CCN(C)C(C)COc2c(C)cccc2C)cc1 (centres unmarked) [Example 27, 1-Methyl-3-[4-[2-[N-methyl-N-[2-(2,6-dimethylphenoxy)-1-methylethyl]amino]ethyl]phenyl]thiourea sesquihydrochloride hemihydrate] |  |  |  |  | 88 mV | 210 ms | 250 ms | -71 mV | 78 V/s | 0.53 | 147.9 V/s | 117 V/s | 161.8 ms | simultaneous prolongation of duration of the action potential (APD) | mexiletine-like inhibition of Vmax | 
Cc1ccccc1OCC(C)N(C)CCc1ccc(NS(C)(=O)=O)cc1 (centres unmarked) [Example 18, N-[4-[2-[N-Methyl-N-[2-(2-methylphenoxy)-1-methylethyl]-amino]ethyl]phenyl]methanesulfonamide hydrochloride] | 9.9% | 18.5% | 14% | 21.7% |  |  |  |  |  |  |  |  |  |  |  | 
Cc1ccc(C)c(OCC(C)N(C)CCc2ccc(NS(C)(=O)=O)cc2)c1 (centres unmarked) [Example 20, N-[4-[2-[N-Metbyl-N-[2-(2,5-dimethylphenoxy)-1-methylethyl]amino]ethyl]phenyl]methanesulfonamide hydrochloride] | 8.4% | 20.3% | 12.6% | 24.5% |  |  |  |  |  |  |  |  |  |  |  | 
CN(CCOc1ccc(NS(C)(=O)=O)cc1)CCc1ccc(NS(C)(=O)=O)cc1 [Dofetilide, N-[4-[2-[N-methyl-N-[2-(4-methanesulfonamidophenoxy)ethyl]-amino]ethyl]phenyl]methanesulfonamide, reference compound] |  |  |  |  |  |  |  |  |  |  |  |  |  |  |  | APA (amplitude of the action potential) ([2]; 1 μM): 96 mV; APD50 (time of 50% repolarization) ([2]; 1 μM): 218 ms; APD90 (time of 90% repolarization) ([2]; 1 μM): 252 ms; RP (resting potential) ([2]; 1 μM): -76 mV; Vmax (maximum rate of depolarization) ([2]; 1 μM): 212 V/s
